Counter-ions that a name gives are not always drawn.
Assays:
LSD1 = LSD1 (Homo sapiens (Human), UniProt O60341); assay: LSD1 TR-FRET Assay; type: biochemical; details: biotinylated H3K4me1 peptide 4 μM, 10 nM LSD1, 40 nM FAD, 50 minutes at room temperature
Protocol: LSD1 demethylase reactions were carried out in 50 mM HEPES pH 7.4, 100 mM NaCl, 1 mM DTT, 0.01% Tween-20, and 0.1 mg/mL BSA. All enzymatic reactions were performed for 50 minutes at room temperature in a 10-μL volume. Five microliters of 8 μM biotinylated H3K4me1 peptide solution was added to each well of a black 384 well, clear-bottom assay plate containing 80 nL compound (final concentration of 0.8% DMSO and 4 μM substrate). Reactions were initiated by the addition of a mixture containing 20 nM LSD1 and 80 nM FAD (5 μL). LSD1 and FAD final concentrations were 10 and 40 nM, respectively. Enzyme activity was stopped by the addition of 90 μL of high salt buffer consisting of 50 mM HEPES pH 7.4, 500 mM NaCl, 1 mM DTT, 0.01% Tween-20, and 0.1 mg/mL BSA. Ten microliters of the quenched reaction mixtures were transferred to a black 384 well ProxiPlate. Ten microliters of detection mixture was added to the ProxiPlate, Europium-labeled antibody and Streptavidin APC were used at final concentrations of 0.3 nM and 200 nM, respectively (total assay volume of 20 μL). Capture of the product peptide by the anti-H3K4me0 antibody and Streptavidin APC was allowed to proceed for 60 min at room temperature before measuring the TR-FRET signal. Plates were read on a Perkin Elmer EnVision. Percent inhibition was calculated using Max (no inhibitor) and Min (quenched with stop buffer) controls and inhibition curves plotted to determine IC50 values.

[1] = tested on: LY-96 mRNA induction in MV4-11 cells; assay: LSD1 LY96 Quantigene Assay; type: cell-based; details: Homo sapiens, 16 h, Quantigene 2.0
Protocol: MV4-11 cells were cultured at a density of 4×10^4 cells per well in a 96-well plates and treated with various doses inhibitor starting from 10 μM up to 0.0005 μM for 16 h. The LY-96 mRNA induction was quantified using the Quantigene 2.0 system (Affymetrix). The cells were lysed with Lysis Mixture containing Proteinase K. The working reagent for capturing the RNA was prepared according to the steps detailed in “Capturing Target RNA from Cultured Cell or Blood Lysates” in the Quantigene handbook. The subsequent hybridization with LY-96 probe, signal amplification and detection steps were performed as described in the manual. The chemiluminescence was read using Envision (PerkinElmer) and Abase (IDBS software) was used to plot the dose response curves and calculate IC50.

Kasumi-1 = Kasumi-1 GI50 Assay; type: cell-based; details: Homo sapiens, 288 h; Kasumi-1 cells, 12 days, Cell Titer-Glo viability
Protocol: Cells were plated at 5,000 cells per well in 96 well tissue culture dishes containing tool compounds arrayed in a 10-point dose curve, ranging from […] with 4-fold dilutions, and split every fourth day at a fixed ratio to re-establish 5,000 cells/well density for DMSO-treated controls. Cell treatments were carried out for a total of 12 days. At each 4-day split, the viable cell numbers were determined using the Cell Titer-Glo luminescent cell viability assay (Promega, Madison, Wis. USA) using an EnVision® Multilabel Plate Reader (Perkin Elmer, Waltham, Mass. USA). GraphPad Prism 6 (GraphPad Software, Inc., La Jolla, Calif. USA) was used for curve fitting and determination of GI50 values.

CC/C(=C\c1ccccc1)[C@@H]1C[C@H]1NC1CC2(CCN(CCO)CC2)C1 [Compound 11, 2-(2-(((1R,2S)-2-((E)-1-phenylbut-1-en-2-yl)cyclopropyl)amino)-7-azaspiro[3.5]nonan-7-yl)ethanol dihydrochloride]
< 100 nM: IC50 (LSD1) | EC50 [1] | GI50 (Kasumi-1)

CC/C(=C\c1ccccc1)[C@@H]1C[C@H]1NC1CC2(C1)CN(CC(=O)NCCO)C2 [Compound 13, N-(2-hydroxyethyl)-2-(6-(((1R,2S)-2-((E)-1-phenylbut-1-en-2-yl)cyclopropyl)amino)-2-azaspiro[3.3]heptan-2-yl)acetamide bis(2,2,2-trifluoroacetate)]
< 100 nM: IC50 (LSD1) | EC50 [1] | GI50 (Kasumi-1)

CC/C(=C\c1ccccc1)[C@@H]1C[C@H]1NC1CC2(CCN(CCOC)CC2)C1 [Compound 17, 7-(2-methoxyethyl)-N-((1R,2S)-2-((E)-1-phenylbut-1-en-2-yl)cyclopropyl)-7-azaspiro[3.5]nonan-2-amine dihydrochloride]
< 100 nM: IC50 (LSD1) | EC50 [1] | GI50 (Kasumi-1)

CC/C(=C\c1ccccc1)[C@@H]1C[C@H]1NC1CC2(C1)CN(CCC(N)=O)C2 [Compound 22, 3-(6-(((1R,2S)-2-((E)-1-phenylbut-1-en-2-yl)cyclopropyl)amino)-2-azaspiro[3.3]heptan-2-yl)propanamide bis(2,2,2-trifluoroacetate)]
< 100 nM: IC50 (LSD1) | EC50 [1] | GI50 (Kasumi-1)

CC/C(=C\c1ccccc1)[C@@H]1C[C@H]1NC1CC2(CCN(CCS(N)(=O)=O)CC2)C1 [Compound 23, 2-(2-(((1R,2S)-2-((E)-1-phenylbut-1-en-2-yl)cyclopropyl)amino)-7-azaspiro[3.5]nonan-7-yl)ethanesulfonamide dihydrochloride]
< 100 nM: IC50 (LSD1) | EC50 [1] | GI50 (Kasumi-1)

CC/C(=C\c1ccccc1)[C@@H]1C[C@H]1NC1CC2(C1)CN(CCS(N)(=O)=O)C2 [Compound 32]
< 100 nM: IC50 (LSD1) | EC50 [1] | GI50 (Kasumi-1)

— US10517849B2, “LSD1 inhibitors and medical uses thereof” (Constellation Pharmaceuticals, Inc., priority 2016, dated 2019)
